According to PubChem BioAssay AID488966 (Southern Research Specialized Biocontainment Screening …, 2010):

System: E. coli UTI89 K1F phage lysis, alamar blue, 2 h
Test: inhibition of K1F phage lysis, E. coli UTI89, bacterial capsule biogenesis inhibitors, alamar blue (AID 488966);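 further: capsule biogenesis inhibitors block K1F phage lysis so surviving cells raise fluorescence; higher fluorescence means more inhibition of phage lysis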

Row | Structure (SMILES) | IC50 [µM]
1 | O=C(COc1ccc(Cl)cc1Cl)Nc1ccc(C(=O)Nc2ccccc2C(=O)O)cc1 | 74.6
2 | N=C(N)SCCc1cccc(CCSC(=N)N)c1 | 114
3 | O=C(Nc1ccncc1)c1ccc2ncsc2c1 | 123
4 | CCN(CC)CCCNc1nc2ccccc2c2[nH]c3ccc(OC)cc3c12 | 86.6
5 | O=C(NCc1cc([N+](=O)[O-])ccc1O)c1cccnc1Sc1ccccc1 | 128
6 | COc1ccc2nc(NC(=O)c3ccc(Br)s3)sc2c1 | 59.7
7 | O=C1C2(Cl)C3(Cl)C4(Cl)C(Cl)(Cl)C5(Cl)C3(Cl)C1(Cl)C5(Cl)C24Cl (stereo not given) | 74.8
8 | Cc1ccc(C2c3c(oc4cc(C)c(C)cc4c3=O)C(=O)N2CCCN2CCOCC2)cc1 (stereo not given) | 228
9 | C=CCOc1ccc(C2c3c(oc4ccccc4c3=O)C(=O)N2CCCN2CCOCC2)cc1 (stereo not given) | 200
10 | CC1(C(=O)O)CCC(C(=O)Nc2ccc3ccccc3c2)C1(C)C (stereo not given) | 178
11 | O=C1c2c(O)ccc(O)c2C(=O)c2c(NCCNCCO)ccc(NCCNCCO)c21 | 211
12 | Cc1ccccc1NC(=NCCCN1CC1)Nc1ccccc1C | 286
13 | N=C(N)c1ccc(/C=C/c2ccc(C(=N)N)cc2O)cc1 | 11.1
14 | NC(N)=N/N=C/c1ccc(OCc2ccccc2)cc1 | 60.8
15 | O=C(Nc1cccc(C2=NCCN2)c1)Nc1cccc(C2=NCCN2)c1 | 251
16 | N=c1n(CCN2CCCC2)c2ccccc2n1CC(O)c1ccc(Cl)c(Cl)c1 (stereo not given) | 140
17 | CCCOc1ccc(C(=O)C(CCC(CNCC)C(=O)c2ccc(OCCC)cc2)CNCC)cc1 (stereo not given) | 132
18 | Cc1cc(C)c(NC(=O)C[N+](C)(C)CC(O)COc2cccc3ccccc23)c(C)c1 (stereo not given) | 82.2
19 | O=C(ONc1ccc(N=NC(=O)c2ccccc2O)cc1)c1ccccc1 | 72.7
20 | O=C(NCc1cc([N+](=O)[O-])ccc1O)c1cccnc1Sc1ccccc1Cl | 175
21 | CCN(CCCl)c1cc(CN(C)C)cc(NC(=O)c2ccc(C(=O)Nc3cc(CN(C)C)cc(N(CC)CCCl)c3)cc2)c1 | 118
22 | CCC1=NN2C(=N)/C(=C\c3ccc(SCc4ccco4)o3)C(=O)N=C2S1 | 68.7
23 | Cc1cccc(C)c1NC(=O)C[N+](C)(C)CC(O)COc1cccc2ccccc12 (stereo not given) | 91
24 | CCN(CC)c1ccc2c(-c3ccc(S(=O)(=O)O)cc3S(=O)(=O)[O-])c3ccc(=[N+](CC)CC)cc-3oc2c1 | 30.6
25 | COc1cc(/C=N/N=C(N)N)ccc1OCc1ccccc1Cl | 56.4
